Assay results: PMC6400287 (Cell reports, 2018)

Target: T1, REV-ERBα (Homo sapiens, UniProt P20393)
T1 sequence (P20393 1-614): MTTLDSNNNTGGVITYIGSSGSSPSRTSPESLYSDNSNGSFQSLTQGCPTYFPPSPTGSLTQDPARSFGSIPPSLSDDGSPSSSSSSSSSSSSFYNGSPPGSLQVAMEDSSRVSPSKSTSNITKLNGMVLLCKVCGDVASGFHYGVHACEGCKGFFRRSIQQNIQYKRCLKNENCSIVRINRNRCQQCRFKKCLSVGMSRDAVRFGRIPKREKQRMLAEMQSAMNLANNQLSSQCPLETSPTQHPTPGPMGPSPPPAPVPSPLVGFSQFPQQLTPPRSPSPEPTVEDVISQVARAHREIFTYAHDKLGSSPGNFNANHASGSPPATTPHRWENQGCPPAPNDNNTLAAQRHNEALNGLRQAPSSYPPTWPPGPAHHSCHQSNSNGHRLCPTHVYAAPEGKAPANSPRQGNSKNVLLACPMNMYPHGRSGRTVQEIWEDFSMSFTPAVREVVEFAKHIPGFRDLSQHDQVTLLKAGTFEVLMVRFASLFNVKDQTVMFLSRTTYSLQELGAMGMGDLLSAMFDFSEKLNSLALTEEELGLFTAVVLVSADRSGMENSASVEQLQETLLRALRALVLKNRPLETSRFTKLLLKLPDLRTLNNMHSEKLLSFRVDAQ
Test: cotransfection Il17a+CNS5 luciferase reporter assay in HEK293 cells
Assay type: cell-based

CCOC(=O)N1CCC(CN(Cc2ccc(Cl)cc2)Cc2ccc([N+](=O)[O-])s2)C1 (stereo not shown) [SR9009]
cotransfection Il17a+CNS5 luciferase reporter assay in HEK293 cells: Both SR9009 and SR12418 dose-dependently inhibited Il17a lucif-erase activity at REV-ERBα and REV-ERBβ
